Data from patent publication US5281602A, “Angiotensin II receptor blocking 2,3,6-substituted 5,6,7,8-tetrahydro-pyrido[4,3-D]pyrimidin-4(3H)-ones” (American Cyanamid Company, priority 1993, dated 1994).
pIC50: −log10 of the molar value. “And” between values parts separate entries of the source, which are not always exact repeats. Equal entries are not always repeated.

Assays:
Angiotension II Receptor = assay: Receptor Binding Assay: competition with [^125 I] (Sar^1,Ile^8) AngII on microsomal membranes; settings: pH 7.4, 60 min, room temperature
Method: Binding of [^125 I] (Sar^1,Ile^8) AngII
The binding of [^125 I] (Sar^1,Ile^8) AngII to microsomal membranes is initiated by the addition of reconstituted membranes (1:10 vols.) in freshly made 50.0 mMTris.HCl buffer, pH 7.4 containing 0.25% heat inactivated bovine serum albumin (BSA):80 ul membrane protein (10 to 20 ug/assay) to wells already containing 100 ul of incubation buffer (as described above) and 20 ul [^125 I] (Sar^1,Ile^8) AngII (Specific Activity, 2200 Ci/mmole). Non-specific binding is measured in the presence of 1.0 uM unlabeled (Sar^1,Ile^8) AngII, added in 20 ul volume. Specific binding for [^125 I] (Sar^1,Ile^8) AngII is greater than 90%. In competition studies, experimental compounds are diluted in dimethylsulfoxide (DMSO) and added in 20 ul to wells before the introduction of tissue membranes. This concentration of DMSO is found to have no negative effects on the binding of [^125 I] (Sar^1,Ile^8) AngII to the membranes. Assays are performed in triplicate. […] Presoaking the filter sheet in 0.1% polyethylenemine in normal saline (PEI/Saline) greatly reduces the radioactivity retained by the filter blanks. […] The filters are removed from the filter grid and counted in a Parkard® Cobra Gamma Counter for 1 min. […] The binding data are analyzed by the non-linear interactive "LUNDON-1" program (LUNDON SOFTWARE Inc., Cleveland, Ohio U.S.A.). […]

[1] = tested on: ANGIOTENSIN II (A11) VASOPRESSOR RESPONSE; assay: AII Challenge: blockade of angiotensin II vasopressor response in conscious SHR; format: in vivo, rat (Conscious Male Okamoto-Aoki SHR); settings: for Change (single reading, systolic blood pressure) / Response After A11 (systolic blood pressure) / Control Before A11 (systolic blood pressure): 15 mg/kg
Text: By administering a compound of this invention to a rat, and then challenging with angiotensin II, a blockage of the vasopressor response is realized.
Conscious Male Okamoto-Aoki SHR, 16-20 weeks old, weighing approximately 330 g are purchased from Charles River Labs (Wilmington, Mass.). Conscious rats are restrained in a supine position with elastic tape. The area at the base of the tail is locally anesthetized by subcutaneous infiltration with 2% procaine. The ventral caudal artery and vein are isolated, and a cannula made of polyethylene (PE) 10-20 tubing (fused together by heat) is passed into the lower abdominal aorta and vena cava, respectively. The cannula is secured, heparinized (1,000 I.U./ml), sealed and the wound is closed. The animals are placed in plastic restraining cages in an upright position. The cannula is attached to a Statham P23Db pressure transducer, and pulsatile blood pressure is recorded to 10-15 minutes with a Gould Brush recorder. (Chan et al., (Drug Development Res., 18:75-94, 1989).
Angiotensin II (human sequence, Sigma Chem. Co., St. Louis, Mo.) of 0.05 and 0.1 ug/kg i.v. is injected into all rats (predosing response). Then a test compound, vehicle or a known angiotensin II antagonist is administered i.v., i.p. or orally to each set of rats. […] The vasopressor response of angiotensin II is measured for the increase in systolic blood pressure in mmHg. The percentage of antagonism or blockade of the vasopressor response of angiotensin II by a compound is calculated using the vasopressor response (increase in systolic blood pressure) of angiotensin II of each rat predosing the compound as 100%. A compound is considered active if at 30 mg/kg i.v. it antagonized at least 50% of the response.

[2] = 15 mg/kg IV (single), AII 0.05 mcg/kg IV, 120 min post dose
[3] = 15 mg/kg IV (single), AII 0.05 mcg/kg IV, 180 min post dose
[4] = 15 mg/kg IV (single), AII 0.1 mcg/kg IV, 120 min post dose
[5] = 15 mg/kg IV (single), AII 0.1 mcg/kg IV, 180 min post dose
[6] = 15 mg/kg IV, AII 0.05 mcg/kg IV, 30 min post dose
[7] = 15 mg/kg IV, AII 0.05 mcg/kg IV, 60 min post dose
[8] = 15 mg/kg IV, AII 0.05 mcg/kg IV, 90 min post dose
[9] = 15 mg/kg IV, AII 0.1 mcg/kg IV, 30 min post dose
[10] = 15 mg/kg IV, AII 0.1 mcg/kg IV, 60 min post dose
[11] = 15 mg/kg IV, AII 0.1 mcg/kg IV, 90 min post dose

For `CCCCc1nc2c(c(=O)n1Cc1ccc(-c3ccccc3-c3nnn[nH]3)cc1)CN(C(=O)C(C)(C)O)CC2` [Example 16], the pIC50 (Angiotension II Receptor) was 6.22, the “Average % Inhibition (angiotensin blockage) of AII vasopressor response” value (from here on “Average % Inhibition”) [1, 2] was 39% and the “Average Change (systolic blood pressure response to AII)” value (shortened to “Average Change”) [1, 2] was 27.5 mmHg. The “Change (single reading, systolic blood pressure)” value [1, 2] was 35 mmHg and 20 mmHg, the “Average % Inhibition” value [1, 3] was 6% and the “Average Change” value [1, 3] was 42.5 mmHg. The “Change (single reading, systolic blood pressure)” value [1, 3] was 55 mmHg and 30 mmHg, the “Average % Inhibition” value [1, 4] was 35% and the “Average Change” value [1, 4] was 32.5 mmHg. The “Change (single reading, systolic blood pressure)” value [1, 4] was 40 mmHg and 25 mmHg, the “Average % Inhibition” value [1, 5] was 5% and the “Average Change” value [1, 5] was 47.5 mmHg. The “Change (single reading, systolic blood pressure)” value [1, 5] was 50 mmHg and 45 mmHg, the “Response After A11 (systolic blood pressure)” value (shortened to “Response After A11”) ([1]; 15 mg/kg IV (single), after AII 0.05 mcg/kg IV, 120 min post dose) was 245 mmHg and 195 mmHg and the “Response After A11” value ([1]; 15 mg/kg IV (single), after AII 0.05 mcg/kg IV, 180 min post dose) was 230 mmHg and 195 mmHg. The “Response After A11” value ([1]; 15 mg/kg IV (single), after AII 0.1 mcg/kg IV, 120 min post dose) was 240 mmHg and 200 mmHg, the “Response After A11” value ([1]; 15 mg/kg IV (single), after AII 0.1 mcg/kg IV, 180 min post dose) was 260 mmHg and 210 mmHg and the “Control Before A11 (systolic blood pressure)” value (shortened to “Control Before A11”) ([1]; 15 mg/kg IV (single), before AII 0.05 mcg/kg IV, 120 min post dose) was 210 mmHg and 175 mmHg. The “Control Before A11” value ([1]; 15 mg/kg IV (single), before AII 0.05 mcg/kg IV, 180 min post dose) was 175 mmHg and 165 mmHg, the “Control Before A11” value ([1]; 15 mg/kg IV (single), before AII 0.1 mcg/kg IV, 120 min post dose) was 200 mmHg and 175 mmHg and the “Control Before A11” value ([1]; 15 mg/kg IV (single), before AII 0.1 mcg/kg IV, 180 min post dose) was 210 mmHg and 165 mmHg. The “Average % Inhibition” value [1, 6] was 72%, the “Average Change” value [1, 6] was 12.5 mmHg and the “Change (single reading, systolic blood pressure)” value [1, 6] was 15 mmHg and 10 mmHg. For the same molecule, the “Average % Inhibition” value [1, 7] was 67%, the “Average Change” value [1, 7] was 15 mmHg and the “Average % Inhibition” value [1, 8] was 37%. For the same molecule, the “Average Change” value [1, 8] was 28.5 mmHg, the “Average % Inhibition” value [1, 9] was 85% and the “Average Change” value [1, 9] was 7.5 mmHg. For the same molecule, the “Change (single reading, systolic blood pressure)” value [1, 9] was 10 mmHg and 5 mmHg, the “Average % Inhibition” value [1, 10] was 57% and the “Average Change” value [1, 10] was 21.5 mmHg. The “Average % Inhibition” value [1, 11] was 33%, the “Average Change” value [1, 11] was 33.5 mmHg and the “Change (single reading, systolic blood pressure)” value [1, 11] was 42 mmHg and 25 mmHg. For the same molecule, the “Response After A11” value ([1]; 15 mg/kg IV, after AII 0.05 mcg/kg IV, 30 min post dose) was 210 mmHg and 185 mmHg, the “Response After A11” value ([1]; 15 mg/kg IV, after AII 0.05 mcg/kg IV, 60 min post dose) was 215 mmHg and 190 mmHg and the “Response After A11” value ([1]; 15 mg/kg IV, after AII 0.05 mcg/kg IV, 90 min post dose) was 225 mmHg and 190 mmHg. For the same molecule, the “Response After A11” value ([1]; 15 mg/kg IV, after AII 0.1 mcg/kg IV, 30 min post dose) was 205 mmHg and 180 mmHg, the “Response After A11” value ([1]; 15 mg/kg IV, after AII 0.1 mcg/kg IV, 60 min post dose) was 220 mmHg and 188 mmHg and the “Response After A11” value ([1]; 15 mg/kg IV, after AII 0.1 mcg/kg IV, 90 min post dose) was 230 mmHg and 195 mmHg. The “Control Before A11” value ([1]; 15 mg/kg IV, before AII 0.05 mcg/kg IV, 30 min post dose) was 195 mmHg and 175 mmHg, the “Control Before A11” value ([1]; 15 mg/kg IV, before AII 0.05 mcg/kg IV, 60 min post dose) was 190 mmHg and 185 mmHg and the “Control Before A11” value ([1]; 15 mg/kg IV, before AII 0.05 mcg/kg IV, 90 min post dose) was 183 mmHg and 175 mmHg. The “Control Before A11” value ([1]; 15 mg/kg IV, before AII 0.1 mcg/kg IV, 30 min post dose) was 195 mmHg and 175 mmHg, the “Control Before A11” value ([1]; 15 mg/kg IV, before AII 0.1 mcg/kg IV, 60 min post dose) was 190 mmHg and 175 mmHg and the “Control Before A11” value ([1]; 15 mg/kg IV, before AII 0.1 mcg/kg IV, 90 min post dose) was 188 mmHg and 170 mmHg.
